The values that follow come from patent US11473089B2, “Aptamer for ADAMTS5 and use for aptamer for ADAMTS5” (RIBOMIC INC., priority 2017, dated 2022).

Read-outs that look alike come from different tables or passages of the source.

The target of data set [1] is T1, ADAMTS5 (Homo sapiens, UniProt Q9UNA0).
T1 construct: purchased R&D systems
T1 sequence (Q9UNA0 262-930): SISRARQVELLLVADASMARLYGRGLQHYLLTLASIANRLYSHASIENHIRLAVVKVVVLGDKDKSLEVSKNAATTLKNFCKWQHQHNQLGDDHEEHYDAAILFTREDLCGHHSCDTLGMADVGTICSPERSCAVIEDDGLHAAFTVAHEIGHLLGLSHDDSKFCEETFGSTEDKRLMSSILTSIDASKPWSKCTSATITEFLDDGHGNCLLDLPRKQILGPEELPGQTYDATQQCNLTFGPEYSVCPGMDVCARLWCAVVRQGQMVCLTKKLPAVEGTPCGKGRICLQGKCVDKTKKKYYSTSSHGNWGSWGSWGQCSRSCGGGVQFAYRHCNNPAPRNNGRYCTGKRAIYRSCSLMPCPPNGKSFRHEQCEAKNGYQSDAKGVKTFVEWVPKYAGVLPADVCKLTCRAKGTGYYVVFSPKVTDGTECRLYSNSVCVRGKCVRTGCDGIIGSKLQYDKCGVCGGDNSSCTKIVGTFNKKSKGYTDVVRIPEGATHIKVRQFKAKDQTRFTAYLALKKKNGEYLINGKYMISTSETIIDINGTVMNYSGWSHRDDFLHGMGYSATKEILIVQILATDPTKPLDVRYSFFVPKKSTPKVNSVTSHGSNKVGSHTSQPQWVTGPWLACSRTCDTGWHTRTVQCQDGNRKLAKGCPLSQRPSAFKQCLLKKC
The data set is described as follows: ADAMTS5 enzyme inhibition, aggrecan G1-IGD-G2 cleavage, SDS-PAGE detection (evaluation method 1). It is filed as biochemical. To be noted: for % inhibitory activity: Table 3, final concentration of the nucleic acid 30 nM; for Inhibitory activity against ADAMTS5: Table 4; for inhibition rate % (10 nM aptamer): Table 5; for inhibitory activity against ADAMTS5 (in words, compared with parent sequence): enzyme assay as in Example 1. The procedure:
Whether an aptamer having the nucleotide sequence shown in SEQ ID NO: 1 inhibits the enzyme activity of ADAMTS5 was evaluated by the following method. As a substrate of ADAMTS5, the G1-IGD-G2 domain of aggrecan (manufactured by R&D systems) was used. ADAMTS5 specifically cleaves in between the 392nd glutamic acid and the 393rd alanine in the G1-IGD-G2 domain and produces two fragments. These fragments have faster electrophoretic mobility than uncleaved G1-IGD-G2. Thus, the enzyme activity of ADAMTS5 can be measured by quantifying the band intensity of G1-IGD-G2 by SDS-PAGE electrophoresis. The assay was performed in a solution A buffer with a reaction mixture volume of 10 μL. First, a mixture (10 μL) of a nucleic acid and ADAMTS5 was prepared and incubated at 25° C. for 15 min. To a substrate solution (5 μL) diluted with solution A was added a mixture (5 μL) of the nucleic acid and ADAMTS5 to start the enzyme reaction. The final concentration of ADAMTS5 in the reaction solution was 5 nM, and the final substrate concentration was 50 μg/mL. The reaction solution was incubated at 37° C. for 2 hr, 2 μL of solution D was added, and the mixture was heated at 95° C. for 2 min to stop the enzyme reaction of ADAMTS5. Solution D contains 0.25 M tris (pH 6.8), 10% SDS, 50% glycerol, 0.25% bromo phenolblue, and 20% 2-mercaptoethanol. The heat-treated reaction solution was electrophoresed by 7.5% SDS-PAGE and stained with SYPRO Orange (manufactured by Sigma-Aldrich). The staining was performed according to the manual of Sigma-Aldrich and detected using STORM840 manufactured by GE Healthcare. For analytical curves, uncleaved substrates 1000 ng, 400 ng, 160 ng, 64 ng, 25.6 ng, 10.24 ng, and 4.1 ng were electrophoresed, and staining and detection were performed in the same manner. The amount of uncleaved substrate in each reaction solution was quantified from the band intensity and the standard curve. The substrate cleavage efficiency of ADAMTS5 under these reaction conditions was 80-100%. The inhibition rate of the test substance was calculated using the following equation. inhibition rate (%)=(Sapt−SE)/(S0−SE)×100 wherein Sapt is the amount of an uncleaved substrate with the addition of a test substance, SE is the residual amount of an uncleaved substrate with the addition of ADAMTS5, and S0 is the residual amount of an uncleaved substrate without the addition of ADAMTS5.
The concentration of an inhibitor necessary for inhibiting 50% of the enzyme activity (IC50) was determined. IC50 is a mean of four measurements.

The target of data set [2] is T1, ADAMTS5. Nature of the data set: binding activity to ADAMTS5 by surface plasmon resonance (Biacore T100). To be noted: Table 10. As for the experimental part:
The binding activity of aptamers having the nucleotide sequences shown in SEQ ID NOs: 1 and 2 to ADAMTS5 was evaluated by the surface plasmon resonance method. Biacore T100 manufactured by GE Healthcare was used for the measurement. The SA chip was used as the sensor chip, which had streptavidin immobilized thereon. About 800 RU of a 16-nucleotide Poly dT with biotin at the 5′-terminal was bound on the chip. […] ADAMTS5 for analyte was prepared at 0.1 μM, and injected at a flow rate of 30 μL/min for 60 sec. As the running buffer, solution C was used. The solution C is a mixed solution of 300 mM sodium chloride, 5.4 mM potassium chloride, 1.8 mM calcium chloride, 0.8 mM magnesium chloride, 20 mM tris (pH 7.6), and 0.05% Tween20.
SEQ ID NO: 2 has a sequence with one base deletion from the continuous 4 G bases in the consensus sequence, and it was shown from the measurement results of the binding activity that the continuous 4 G bases in the consensus sequence are important for the activity of aptamers. Sensorgram showing the binding of an aptamer having the nucleotide sequence shown in SEQ ID NO: 1 to ADAMTS5 is presented in FIG. 2. In Table 1, “++” indicates those with the proportion of ADAMTS5 binding amount (RU value) to the amount of aptamer immobilized on the SA chip (RU value) of not less than 40%, “+” indicates those with the proportion of not less than 10% and less than 40%, and “−” indicates those with the proportion of less than 10%.
The binding activity and enzyme inhibitory activity of aptamers having nucleotide sequences shown in SEQ ID NOs: 16-25 to ADAMTS5 were measured. The binding activity was evaluated by the surface plasmon resonance method. For the measurement, a method similar to that in Example 1 was used. The enzyme inhibitory activity was measured by a method similar to that in Example 1. […] The negative control nucleic acid refers to the nucleic acid pool used in the first round of the SELEX method. The “++” indicates those with the proportion of ADAMTS5 binding amount (RU value) to the amount of aptamer immobilized on the SA chip (RU value) of not less than 40%, and “+” indicates those with the proportion of less than 40%. […] “n.d.” means not determined.
The binding activity of the nucleic acids shown in SEQ ID NOs: 30-45 to ADAMTS5 was measured. The binding activity was evaluated by the surface plasmon resonance method. In the Table, “++” indicates those with the proportion of ADAMTS5 binding amount (RU value) to the amount of aptamer immobilized on the SA chip (RU value) of not less than 40%, “+” indicates those with the proportion of not less than 10% and less than 40%, and “−” indicates those with the proportion of less than 10%.

[3] abbreviates: Table 9, electrophoresis detection, 10 nM nucleic acid.

For the compound “3 (GGAUUGGGGCCUCCACAGCUGCUCAGCUUGGACUAAACCAAUCC; 2'-fluoro at CU, RNA at AG, backbone not given here) [compound 3]”, the “% inhibitory activity” value with ADAMTS5 [1] was determined as 36.4%. Further, the entries for the “Inhibitory activity against ADAMTS5” value with ADAMTS5 [1] (nucleic acid concentration 10 nM) and in the data set with ADAMTS5 [1] (nucleic acid concentration 30 nM) were 33.9% and 58.4%, respectively.
With “4 (GGCUUGGGGCCUCCACAGCUGCUCAGCUUGGACUAAACCAAGCC; 2'-fluoro at CU, RNA at AG, backbone not given here) [compound 4]”, the “% inhibitory activity” value with ADAMTS5 [1] stood at 23%.
On the same count and under the same terms, the same measure for “5 (GGCUUGGGGCCUCCACAGCGCUCGCUUGGACUAAACCAAGCC; 2'-fluoro at CU, RNA at AG, backbone not given here) [compound 5]”: 27%; for “6 (GGCUUGGGGCCUCCACAGCUGUCAGCUUGGACUAAACCAAGCC; 2'-fluoro at CU, RNA at AG, backbone not given here) [compound 6]”: 33.7%.
On the same count and under the same terms, the same measure for “7 (GGCUUGGGGCCUCCACAGCUGCUCAGCUUGGACUAACCAAGCC; 2'-fluoro at CU, RNA at AG, backbone not given here) [compound 7]”: −2.3%; for “8 (GGCUUGGGGCCUCACAGCUGCUCAGCUUGACUAAACCAAGCC; 2'-fluoro at CU, RNA at AG, backbone not given here) [compound 8]”: −8.6%.
Still for that read-out and setting: the same measure for “9 (GGAUUGGGGCCUCCACAGCGUCGCUUGGACUAAACCAAUCC; 2'-fluoro at CU, RNA at AG, backbone not given here) [compound 9]”: 5.9%.
Regarding “10 (AUUGGGGCCUCCACAGCUGCUCAGCUUGGACUAAACCAAU; 2'-F and 2'-O-methyl modifications at positions not given here) [compound 10]”, in the data set with ADAMTS5 [1] (10 nM aptamer), the “inhibition rate % (10 nM aptamer)” value is reported as 65%. The “inhibitory activity (%) evaluation method 1” value in the data set with ADAMTS5 [1] (Table 6, 10 nM aptamer) amounted to 65%.
Take “11 (AUUGGGGCCUCCACAGCGCUCGCUUGGACUAAACCAAU; 2'-F and 2'-O-methyl modifications at positions not given here) [compound 11]”: the “inhibition rate % (10 nM aptamer)” value with ADAMTS5 [1] (10 nM aptamer) was 59.8%. For the same compound, in the data set with ADAMTS5 [1] (Table 6, 10 nM aptamer), the “inhibitory activity (%) evaluation method 1” value came to 59.8%.
On to “12 (UUGGGGCCUCCACAGCGCUCGCUUGGACUAAACCAA; chemically modified, pattern not given here) [compound 12]”, for which the “inhibition rate % (10 nM aptamer)” value in the data set with ADAMTS5 [1] (10 nM aptamer) is 71.1%.
Regarding “13 (GCUGGGGCCUCCACAGCGCUCGCUUGGACUAAACCAGC; chemically modified, pattern not given here) [compound 13]”, the “inhibitory activity (%) evaluation method 1” value in the data set with ADAMTS5 [1] (Table 6, 10 nM aptamer) is 58.4%. Moreover, the “inhibitory activity against ADAMTS5 (in words, compared with parent sequence)” value with ADAMTS5 [1] is listed as “does not affect the inhibitory activity”.
For “14 (AUUGGGGCCUCCACAGCUUCGGCUUGGACUAAACCAAU; listed as RNA, chemistry not given here) [compound 14]” the same measures were 60.5% and “does not affect the inhibitory activity”.
As to “26 (GGGUAUAGGGGCCUCCACAGCGUAAGCUUGGACUUAAACCAUACCC; listed as RNA, chemistry not given here) [compound 26]”, the “inhibitory activity % 30 nM aptamer” value with ADAMTS5 [1] (Table 8, 30 nM aptamer) is 63.5%.
With “27 (UAUAGGGGCCUCCACAGCGUAAGCUUGGACUUAAACCAUA; aptamer; 2'-O-methyl modifications copied from another aptamer, pattern not given here, some with 3' inverted dT) [compound 27]”, in the data set with ADAMTS5 [1] (Table 8, read-out: IC50), the half-inhibitory concentration (IC50) came to 5.9 nM.
For “28 (CGUAGGGGCCUCCACAGCGUAAGCUUGGACUUAAACCACG; aptamer; 2'-O-methyl modifications copied from another aptamer, pattern not given here, some with 3' inverted dT) [compound 28]”, the IC50 in the data set with ADAMTS5 [1] (Table 8, read-out: IC50) came out at 3.4 nM. In addition, the “inhibitory activity (%) evaluation method 1” value with ADAMTS5 [1] (setting [3]) is listed as 81%.
Regarding “29 (CGUAGGGGCCUCCACAGCAUUCGCUUGGACACAAACCACG; aptamer; 2'-O-methyl modifications copied from another aptamer, pattern not given here, some with 3' inverted dT) [compound 29]”, the “inhibitory activity % 10 nM aptamer” value in the data set with ADAMTS5 [1] (Table 8, 10 nM aptamer) is given as 84%. Further, the “inhibitory activity (%) evaluation method 1” value with ADAMTS5 [1] (setting [3]) worked out at 84%.
Consider “30 (GGGUAUUGGGGCCUCCACAAUAGAUAAAUGGACUAAACCAACUCGA; 2'-fluoro at CU, RNA at AG, backbone not given here) [compound 30]”, for which the binding activity entry in the data set with ADAMTS5 [2] was “++ (proportion of ADAMTS5 binding amount (RU value) to the amount of aptamer immobilized on the SA chip (RU value) of not less than 40%)”.
Regarding “31 (GGGUAUUGGGGCCUCCACAGUUGAAGCUUGGACUAAACCAAUCUCGA; aptamer; 2'-fluoro at CU, RNA at AG, backbone not given here) [compound 31]”, in the data set with ADAMTS5 [2], the binding activity result is “++ (proportion of ADAMTS5 binding amount (RU value) to the amount of aptamer immobilized on the SA chip (RU value) of not less than 40%)”.
On to `Cn1nc(C(F)(F)F)c(/C=C2\SC(=S)NC2=O)c1SCc1ccc(Cl)cc1` [reference compound], for which, on ADAMTS5 [1] (positive control, read-out: IC50 value), the half-maximal inhibitory concentration (IC50) was 90500 nM.
